Columns and labels:
Test in all cases: relative viability (nuclei count vs DMSO), 5 days (fraction); higher = more cells survive
[1] = test system: COR-L23
Procedure, shortened: (§1)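 Lung cancer cell lines in 1536-well plates were dosed by pin tool the day after seeding, either with one drug alone or with a fixed anchor-drug dose plus five library-drug doses (not always all listed) in √10 steps. After 5 days, cells were fixed and their nuclei stained in one step (final 0.05% Triton X-100, 1% formaldehyde, 1 ug/ml Hoechst), then counted on 4× images. Relative viability is the nuclei count in treated wells divided by that in vehicle wells. Values are medians of duplicate plates.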

[2] = test system: NCI-H1975
Procedure, shortened: as §1

[3] = test system: 201T
Procedure, shortened: as §1

[4] = test system: HCC-827
Procedure, shortened: as §1

[5] = test system: HCC-15
Procedure, shortened: as §1

[6] = test system: EKVX
Procedure, shortened: as §1

[7] = test system: NCI-H596
Procedure, shortened: as §1

[8] = test system: NCI-H1437
Procedure, shortened: as §1

[9] = test system: NCI-H441
Procedure, shortened: as §1

[10] = test system: NCI-H1792
Procedure, shortened: as §1

[11] = test system: NCI-H838
Procedure, shortened: as §1

[12] = test system: NCI-H650
Procedure, shortened: as §1

[13] = test system: A-427
Procedure, shortened: as §1

[14] = test system: LK-2
Procedure, shortened: as §1

[15] = test system: SW 900
Procedure, shortened: as §1

[16] = test system: NCI-H520
Procedure, shortened: as §1

[17] = test system: HCC-44
Procedure, shortened: as §1

[18] = test system: NCI-H522
Procedure, shortened: as §1

[19] = test system: NCI-H23
Procedure, shortened: as §1

[20] = test system: SK-MES-1
Procedure, shortened: as §1

[21] = test system: LCLC-103H
Procedure, shortened: as §1

[22] = test system: COR-L 105
Procedure, shortened: as §1

[23] = test system: HARA
Procedure, shortened: as §1

[24] = test system: NCI-H1666
Procedure, shortened: as §1

SMILES: CC(C)Oc1cc(Nc2nc(N[C@@H](C)c3ccc(F)cn3)ncc2Cl)n[nH]1 [AZ23] + O=C(c1cc(Cc2n[nH]c(=O)c3ccccc23)ccc1F)N1CCN(C(=O)C2CC2)CC1 [Olaparib] (partner 8 µM)
- relative viability ([1]; first compound 0.01 µM): 0.272
- relative viability ([1]; first compound 0.03162 µM): 0.365
- relative viability ([1]; first compound 0.3162 µM): 0.34
- relative viability ([2]; first compound 0.01 µM): 0.88
- relative viability ([2]; first compound 0.03162 µM): 0.904
- relative viability ([2]; first compound 0.3162 µM): 0.822
- relative viability ([3]; first compound 0.01 µM): 0.899
- relative viability ([3]; first compound 0.03162 µM): 0.872
- relative viability ([3]; first compound 0.3162 µM): 0.85
- relative viability ([4]; first compound 0.01 µM): 0.665
- relative viability ([4]; first compound 0.03162 µM): 0.764
- relative viability ([4]; first compound 0.3162 µM): 0.712
- relative viability ([5]; first compound 0.01 µM): 1.02
- relative viability ([5]; first compound 0.03162 µM): 0.698
- relative viability ([5]; first compound 0.3162 µM): 0.747
- relative viability ([6]; first compound 0.01 µM): 0.912
- relative viability ([6]; first compound 0.03162 µM): 0.97
- relative viability ([6]; first compound 0.3162 µM): 0.895
- relative viability ([7]; first compound 0.01 µM): 0.603
- relative viability ([7]; first compound 0.03162 µM): 0.749
- relative viability ([7]; first compound 0.3162 µM): 0.665
- relative viability ([8]; first compound 0.01 µM): 0.714
- relative viability ([8]; first compound 0.03162 µM): 0.618
- relative viability ([8]; first compound 0.3162 µM): 0.648
- relative viability ([9]; first compound 0.01 µM): 0.645
- relative viability ([9]; first compound 0.03162 µM): 0.69
- relative viability ([9]; first compound 0.3162 µM): 0.494
- relative viability ([10]; first compound 0.01 µM): 0.27
- relative viability ([10]; first compound 0.03162 µM): 0.594
- relative viability ([10]; first compound 0.3162 µM): 0.373
- relative viability ([11]; first compound 0.01 µM): 0.905
- relative viability ([11]; first compound 0.03162 µM): 0.964
- relative viability ([11]; first compound 0.3162 µM): 0.721
- relative viability ([12]; first compound 0.01 µM): 0.483
- relative viability ([12]; first compound 0.03162 µM): 0.454
- relative viability ([12]; first compound 0.3162 µM): 0.357
- relative viability ([13]; first compound 0.01 µM): 0.82
- relative viability ([13]; first compound 0.03162 µM): 0.885
- relative viability ([13]; first compound 0.3162 µM): 0.856
- relative viability ([14]; first compound 0.01 µM): 0.717
- relative viability ([14]; first compound 0.03162 µM): 0.825
- relative viability ([14]; first compound 0.3162 µM): 0.68
- relative viability ([15]; first compound 0.01 µM): 0.804
- relative viability ([15]; first compound 0.3162 µM): 0.869
- relative viability ([16]; first compound 0.01 µM): 0.346
- relative viability ([16]; first compound 0.03162 µM): 0.328
- relative viability ([16]; first compound 0.3162 µM): 0.312
- relative viability ([17]; first compound 0.01 µM): 1.04
- relative viability ([17]; first compound 0.03162 µM): 1.04
- relative viability ([17]; first compound 0.3162 µM): 0.979
- relative viability ([18]; first compound 0.01 µM): 0.667
- relative viability ([18]; first compound 0.03162 µM): 0.598
- relative viability ([18]; first compound 0.3162 µM): 0.641
- relative viability ([19]; first compound 0.03162 µM): 0.263
- relative viability ([19]; first compound 0.3162 µM): 0.394
- relative viability ([20]; first compound 0.03162 µM): 0.833
- relative viability ([20]; first compound 0.3162 µM): 0.764
- relative viability ([21]; first compound 0.01 µM): 0.981
- relative viability ([21]; first compound 0.03162 µM): 0.86
- relative viability ([21]; first compound 0.3162 µM): 0.864
- relative viability ([22]; first compound 0.01 µM): 0.609
- relative viability ([22]; first compound 0.03162 µM): 0.819
- relative viability ([22]; first compound 0.3162 µM): 0.665
- relative viability ([23]; first compound 0.01 µM): 0.292
- relative viability ([23]; first compound 0.03162 µM): 0.575
- relative viability ([23]; first compound 0.3162 µM): 0.969
- relative viability ([24]; first compound 0.01 µM): 0.718
- relative viability ([24]; first compound 0.03162 µM): 0.699
- relative viability ([24]; first compound 0.3162 µM): 0.759

SMILES: CC(C)Oc1cc(Nc2nc(N[C@@H](C)c3ccc(F)cn3)ncc2Cl)n[nH]1 [AZ23] + CCNC(=O)c1noc(-c2cc(C(C)C)c(O)cc2O)c1-c1ccc(CN2CCOCC2)cc1 [Luminespib] (partner 0.01 µM)
- relative viability ([1]; first compound 0.01 µM): 0.405
- relative viability ([1]; first compound 0.03162 µM): 0.814
- relative viability ([1]; first compound 0.3162 µM): 0.869
- relative viability ([2]; first compound 0.01 µM): 0.234
- relative viability ([2]; first compound 0.03162 µM): 0.195
- relative viability ([2]; first compound 0.3162 µM): 0.223
- relative viability ([3]; first compound 0.01 µM): 1.15
- relative viability ([3]; first compound 0.03162 µM): 1.02
- relative viability ([3]; first compound 0.3162 µM): 1.02
- relative viability ([4]; first compound 0.01 µM): 0.372
- relative viability ([4]; first compound 0.03162 µM): 0.74
- relative viability ([4]; first compound 0.3162 µM): 0.649
- relative viability ([5]; first compound 0.01 µM): 0.435
- relative viability ([5]; first compound 0.03162 µM): 0.243
- relative viability ([5]; first compound 0.3162 µM): 0.338
- relative viability ([6]; first compound 0.01 µM): 0.861
- relative viability ([6]; first compound 0.03162 µM): 0.84
- relative viability ([6]; first compound 0.3162 µM): 0.924
- relative viability ([7]; first compound 0.01 µM): 1.13
- relative viability ([7]; first compound 0.03162 µM): 1.06
- relative viability ([7]; first compound 0.3162 µM): 0.857
- relative viability ([8]; first compound 0.01 µM): 1.29
- relative viability ([8]; first compound 0.03162 µM): 1.25
- relative viability ([8]; first compound 0.3162 µM): 1.2
- relative viability ([9]; first compound 0.01 µM): 0.28
- relative viability ([9]; first compound 0.03162 µM): 0.344
- relative viability ([9]; first compound 0.3162 µM): 0.376
- relative viability ([10]; first compound 0.01 µM): 0.305
- relative viability ([10]; first compound 0.03162 µM): 0.646
- relative viability ([10]; first compound 0.3162 µM): 0.466
- relative viability ([11]; first compound 0.01 µM): 0.229
- relative viability ([11]; first compound 0.03162 µM): 0.278
- relative viability ([11]; first compound 0.3162 µM): 0.345
- relative viability ([12]; first compound 0.01 µM): 0.665
- relative viability ([12]; first compound 0.03162 µM): 0.854
- relative viability ([12]; first compound 0.3162 µM): 0.765
- relative viability ([13]; first compound 0.01 µM): 0.844
- relative viability ([13]; first compound 0.03162 µM): 1.03
- relative viability ([13]; first compound 0.3162 µM): 1.03
- relative viability ([14]; first compound 0.01 µM): 0.185
- relative viability ([14]; first compound 0.03162 µM): 0.189
- relative viability ([14]; first compound 0.3162 µM): 0.177
- relative viability ([15]; first compound 0.01 µM): 0.174
- relative viability ([15]; first compound 0.03162 µM): 0.143
- relative viability ([15]; first compound 0.3162 µM): 0.174
- relative viability ([16]; first compound 0.01 µM): 0.236
- relative viability ([16]; first compound 0.03162 µM): 0.22
- relative viability ([16]; first compound 0.3162 µM): 0.212
- relative viability ([17]; first compound 0.01 µM): 0.863
- relative viability ([17]; first compound 0.03162 µM): 1.22
- relative viability ([17]; first compound 0.3162 µM): 1.22
- relative viability ([18]; first compound 0.01 µM): 1.06
- relative viability ([18]; first compound 0.03162 µM): 1.08
- relative viability ([18]; first compound 0.3162 µM): 1.15
- relative viability ([19]; first compound 0.03162 µM): 0.229
- relative viability ([19]; first compound 0.3162 µM): 0.204
- relative viability ([20]; first compound 0.03162 µM): 0.834
- relative viability ([20]; first compound 0.3162 µM): 0.952
- relative viability ([21]; first compound 0.01 µM): 1.04
- relative viability ([21]; first compound 0.03162 µM): 0.923
- relative viability ([21]; first compound 0.3162 µM): 1.03
- relative viability ([22]; first compound 0.01 µM): 0.83
- relative viability ([22]; first compound 0.03162 µM): 0.872
- relative viability ([22]; first compound 0.3162 µM): 0.731
- relative viability ([23]; first compound 0.03162 µM): 0.822
- relative viability ([23]; first compound 0.3162 µM): 1.34
- relative viability ([24]; first compound 0.01 µM): 1.05
- relative viability ([24]; first compound 0.03162 µM): 1.34
- relative viability ([24]; first compound 0.3162 µM): 0.943

Source: the supplement of paper PMC10307832
